From patent US20260116910A1, “POLYCYCLIC COMPOUNDS AND METHODS THEREOF” (HEPAITECH (BEIJING) BIOPHARMA TECHNOLOGY CO., LTD., priority 2021, published 2026)

Assays:
MRGPRX4 = MRGPRX4 (Homo sapiens, UniProt Q96LA9); experiment: MRGPRX4 activation, Fluo-8 Ca2+ FLIPR assay in HEK293T cells stably expressing MRGPRX4; type: cell-based; design: key to MRGPRX4 activation, Average / MRGPRX4 activation, Ave.: fluorescence change dF/F0; conditions: for EC50: MRGPRX4 activation, Ca2+ fluorescence, no activation in tested range reported as III, read-out: Activity (EC50 μM)
Outline: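 Cells seeded overnight to >95% confluence, loaded 40-60 min at room temperature with 2 μM Fluo-8 AM, then kept in HHBS. Baseline read 30 s, compound added, signal followed 150 s more.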

human FXR (NR1H4) = target: T1, human FXR (NR1H4) (Homo sapiens, UniProt Q96RI1); experiment: Human FXR (NR1H4) agonist assessment, FXRE-NanoLuc reporter in HEK293T cells; type: cell-based; conditions: FXR activation, HEK293T FXRE-NanoLuc reporter, 24 hr; for EC50: read-out: EC50
T1 sequence (Q96RI1 1-476 isoform Q96RI1-1): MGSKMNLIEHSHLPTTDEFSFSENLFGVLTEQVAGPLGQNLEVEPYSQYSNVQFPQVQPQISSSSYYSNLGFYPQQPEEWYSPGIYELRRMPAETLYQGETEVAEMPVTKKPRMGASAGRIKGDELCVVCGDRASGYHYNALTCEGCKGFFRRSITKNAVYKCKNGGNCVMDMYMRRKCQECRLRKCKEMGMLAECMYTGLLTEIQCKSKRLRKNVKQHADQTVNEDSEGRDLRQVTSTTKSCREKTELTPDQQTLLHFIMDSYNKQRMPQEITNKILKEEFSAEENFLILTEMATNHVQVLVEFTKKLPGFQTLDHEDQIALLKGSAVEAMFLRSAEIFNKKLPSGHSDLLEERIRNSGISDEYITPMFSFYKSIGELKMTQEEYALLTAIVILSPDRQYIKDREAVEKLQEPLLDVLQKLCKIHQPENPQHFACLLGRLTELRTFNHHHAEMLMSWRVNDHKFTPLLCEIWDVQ
Outline: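 HEK293T cells stably expressing human FXR with an FXRE-NanoLuc reporter were treated with compounds for 24 hr at 37 °C, with 0.01% DMSO as negative control. Medium was read for luminescence after 5 min with coelenterazine. EC50 was fitted by sigmoid to concentration-response data.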

[1] = E3-6-2, 1st of 6 concentration columns (head not in rows shown)
[2] = E3-6-2, 3rd of 6 concentration columns (head not in rows shown)
[3] = E3-6-2, 6th of 6 concentration columns (head not in rows shown)
[4] = E3-6-2, concentration not given

Sequence of MRGPRX4 (Q96LA9 whole entry): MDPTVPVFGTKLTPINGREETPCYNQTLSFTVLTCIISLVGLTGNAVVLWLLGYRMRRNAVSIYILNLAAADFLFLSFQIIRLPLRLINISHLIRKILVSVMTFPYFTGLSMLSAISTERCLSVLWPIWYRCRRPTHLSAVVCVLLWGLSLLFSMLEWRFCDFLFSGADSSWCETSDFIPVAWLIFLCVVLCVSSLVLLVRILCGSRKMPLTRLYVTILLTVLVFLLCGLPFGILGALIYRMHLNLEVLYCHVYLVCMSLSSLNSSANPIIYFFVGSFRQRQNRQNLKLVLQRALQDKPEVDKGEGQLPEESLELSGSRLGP

| Compound | MRGPRX4 activation, fluorescence change (dF/F0), Average (MRGPRX4; Conc. (Log[M]) −4.5) | EC50 (MRGPRX4) [µM] | Efficacy (maximum measured induction of NanoLuc, normalized to CDCA set as 100%) (human FXR (NR1H4)) | EC50 (human FXR (NR1H4)) [µM] | MRGPRX4 activation, fluorescence change (dF/F0), Average (MRGPRX4; Conc. (Log[M]) −4.0) | MRGPRX4 activation, fluorescence change (dF/F0), Average (MRGPRX4; Conc. (Log[M]) −5.0) | MRGPRX4 activation, fluorescence change (dF/F0), Average (MRGPRX4; Conc. (Log[M]) −5.4) | MRGPRX4 activation, fluorescence change (dF/F0), Average (MRGPRX4; Conc. (Log[M]) −5.9) | MRGPRX4 activation, fluorescence change (dF/F0), Average (MRGPRX4; Conc. (Log[M]) −6.4) | MRGPRX4 activation, fluorescence change (dF/F0), Average (MRGPRX4; Conc. (Log[M]) −6.9) | MRGPRX4 activation, fluorescence change (dF/F0), Average (MRGPRX4; Conc. (Log[M]) −7.3) | MRGPRX4 activation, fluorescence change (dF/F0), Average (MRGPRX4; Conc. (Log[M]) −7.8) | MRGPRX4 activation, fluorescence change (dF/F0), Average (MRGPRX4; Conc. (Log[M]) −8.3) | other results |
| --- | --- | --- | --- | --- | --- | --- | --- | --- | --- | --- | --- | --- | --- | --- |
| CC[C@H]1[C@@H](O)[C@@H]2[C@H](CC[C@]3(C)[C@@H]([C@H](C)CCNC(=O)NS(=O)(=O)c4ccc(C(C)(C)C(=O)O)cc4)CC[C@@H]23)[C@@]2(C)CCCC[C@@H]12 [5-10] | 0.043 | > 100 | C (100%<efficacy <=300%) | < 1 | – | – | – | – | – | – | – | – | – | MRGPRX4 activation, fluorescence change (dF/F0), Average (MRGPRX4; Conc. (Log[M]) −4): 0.090; MRGPRX4 activation, fluorescence change (dF/F0), Average (MRGPRX4; Conc. (Log[M]) −5): 0.013; MRGPRX4 activation, fluorescence change (dF/F0), Average (MRGPRX4; Conc. (Log[M]) −5.5): 0.017; MRGPRX4 activation, fluorescence change (dF/F0), Average (MRGPRX4; Conc. (Log[M]) −6): 0.020; MRGPRX4 activation, fluorescence change (dF/F0), Average (MRGPRX4; Conc. (Log[M]) −7): 0.030 |
| CC[C@H]1[C@@H](O)[C@@H]2[C@H](CC[C@]3(C)[C@@H]([C@H](C)CCNC(=O)NS(=O)(=O)N4CCCC4)CC[C@@H]23)[C@@]2(C)CCCC[C@@H]12 [5-11] | 0.030 | > 100 | C (100%<efficacy <=300%) | 1 to 10 | – | – | – | – | – | – | – | – | – | MRGPRX4 activation, fluorescence change (dF/F0), Average (MRGPRX4; Conc. (Log[M]) −4): 0.057; MRGPRX4 activation, fluorescence change (dF/F0), Average (MRGPRX4; Conc. (Log[M]) −5): 0.033; MRGPRX4 activation, fluorescence change (dF/F0), Average (MRGPRX4; Conc. (Log[M]) −5.5): 0.013; MRGPRX4 activation, fluorescence change (dF/F0), Average (MRGPRX4; Conc. (Log[M]) −6): 0.023; MRGPRX4 activation, fluorescence change (dF/F0), Average (MRGPRX4; Conc. (Log[M]) −7): 0.067 |
| CC[C@H]1[C@@H](O)[C@@H]2[C@H](CC[C@]3(C)[C@@H]([C@H](C)CCNC(=O)NS(=O)(=O)N4CC5CC5C4)CC[C@@H]23)[C@@]2(C)CCCC[C@@H]12 (some centres unmarked) [5-12] | – | > 100 | C (100%<efficacy <=300%) | 1 to 10 | – | – | – | – | – | – | – | – | – | MRGPRX4 activation, Average (MRGPRX4; [1]): 0.057; MRGPRX4 activation, Average (MRGPRX4; [2]): 0.023; MRGPRX4 activation, Average (MRGPRX4; [3]): 0.013; MRGPRX4 activation, Average (MRGPRX4; [4]): 0.013 |
| CC[C@H]1[C@@H](O)[C@@H]2[C@H](CC[C@]3(C)[C@@H]([C@H](C)CCNC(=O)NS(=O)(=O)Cc4ccccc4)CC[C@@H]23)[C@@]2(C)CCCC[C@@H]12 [5-13] | – | > 100 | C (100%<efficacy <=300%) | < 1 | – | – | – | – | – | – | – | – | – | MRGPRX4 activation, Average (MRGPRX4; [1]): 0.060; MRGPRX4 activation, Average (MRGPRX4; [2]): 0.030; MRGPRX4 activation, Average (MRGPRX4; [3]): 0.027; MRGPRX4 activation, Average (MRGPRX4; [4]): 0.017 |
| CCCCS(=O)(=O)NC(=O)NCC[C@@H](C)[C@H]1CC[C@H]2[C@@H]3[C@H](O)[C@H](CC)[C@@H]4CCCC[C@]4(C)[C@H]3CC[C@]12C [5-14] | – | > 100 | C (100%<efficacy <=300%) | < 1 | – | – | – | – | – | – | – | – | – | MRGPRX4 activation, Average (MRGPRX4; [1]): 0.070; MRGPRX4 activation, Average (MRGPRX4; [2]): 0.017; MRGPRX4 activation, Average (MRGPRX4; [3]): 0.017; MRGPRX4 activation, Average (MRGPRX4; [4]): 0.017 |
| CC[C@H]1[C@@H](O)[C@@H]2[C@H](CC[C@]3(C)[C@@H]([C@H](C)CCNC(=O)NS(=O)(=O)c4ccc(C(C)(C)C(N)=O)cc4)CC[C@@H]23)[C@@]2(C)CCCC[C@@H]12 [5-16] | 0.020 | > 100 | C (100%<efficacy <=300%) | < 1 | 0.030 | 0.010 | 0.020 | 0.020 | 0.013 | 0.013 | 0.013 | 0.013 | 0.025 | – |
| CC[C@H]1[C@@H](O)[C@@H]2[C@H](CC[C@]3(C)[C@@H]([C@H](C)CCNC(=O)NS(=O)(=O)c4ccc(C(C)(C)C#N)cc4)CC[C@@H]23)[C@@]2(C)CCCC[C@@H]12 [5-17] | 0.018 | > 100 | C (100%<efficacy <=300%) | < 1 | 0.016 | 0.019 | 0.016 | 0.018 | 0.018 | 0.011 | 0.018 | 0.020 | 0.013 | – |
| CC[C@H]1[C@@H](O)[C@@H]2[C@H](CC[C@]3(C)[C@@H]([C@H](C)CCNC(=O)NS(=O)(=O)c4ccc(C(C)(C)CN)cc4)CC[C@@H]23)[C@@]2(C)CCCC[C@@H]12 [5-18] | 0.008 | > 100 | B (300%<efficacy <=400%) | < 1 | 0.018 | 0.021 | 0.021 | 0.021 | 0.021 | 0.011 | 0.018 | 0.020 | 0.013 | – |
| CC[C@H]1[C@@H](O)[C@@H]2[C@H](CC[C@]3(C)[C@@H]([C@H](C)CCNC(=O)NS(=O)(=O)c4ccc(C5(CO)CCCC5)cc4)CC[C@@H]23)[C@@]2(C)CCCC[C@@H]12 [5-21] | 0.016 | > 100 | C (100%<efficacy <=300%) | < 1 | 0.018 | 0.020 | 0.018 | 0.018 | 0.016 | 0.018 | 0.016 | 0.020 | 0.018 | – |
| CC[C@H]1[C@@H](O)[C@@H]2[C@H](CC[C@]3(C)[C@@H]([C@H](C)CCNC(=O)NS(=O)(=O)c4ccc(C(C)(CO)CO)cc4)CC[C@@H]23)[C@@]2(C)CCCC[C@@H]12 [5-22] | 0.018 | > 100 | C (100%<efficacy <=300%) | < 1 | 0.020 | 0.013 | 0.013 | 0.011 | 0.016 | 0.016 | 0.018 | 0.014 | 0.016 | – |
| CC[C@H]1[C@@H](O)[C@@H]2[C@H](CC[C@]3(C)[C@@H]([C@H](C)CCNC(=O)NS(=O)(=O)c4cc(F)ccc4F)CC[C@@H]23)[C@@]2(C)CCCC[C@@H]12 [5-23] | – | > 100 | A (efficacy >400%) | < 1 | – | – | – | – | – | – | – | – | – | MRGPRX4 activation, Ave. (MRGPRX4; E3-7, Conc. (Log[M]) −4): −0.027; MRGPRX4 activation, Ave. (MRGPRX4; E3-7, Conc. (Log[M]) −4.5): −0.027; MRGPRX4 activation, Ave. (MRGPRX4; E3-7, Conc. (Log[M]) −5): −0.014; MRGPRX4 activation, Ave. (MRGPRX4; E3-7, Conc. (Log[M]) −5.5): −0.054; MRGPRX4 activation, Ave. (MRGPRX4; E3-7, Conc. (Log[M]) −6): −0.041; MRGPRX4 activation, Ave. (MRGPRX4; E3-7, Conc. (Log[M]) −7): 0.000 |
| CC[C@H]1[C@@H](O)[C@@H]2[C@H](CC[C@]3(C)[C@@H]([C@H](C)CCNC(=O)NS(=O)(=O)c4cc(F)cc(F)c4)CC[C@@H]23)[C@@]2(C)CCCC[C@@H]12 [5-24] | 0.012 | – | B (300%<efficacy <=400%) | < 1 | 0.021 | 0.021 | 0.019 | 0.011 | 0.013 | 0.013 | 0.013 | 0.008 | 0.011 | – |
